Data as given in patent US20170082610A1, “METHOD FOR PREDICTING TOXICITY OF A COMPOUND BASED ON NUCLEAR FACTOR-kB TRANSLOCATION” (priority 2014, published 2017).
Where two headings read alike, the source gives them in different places.

Experiments:
NF-κB p65 [1] = assay: HCS assay of compound-induced NF-κB p65 nuclear translocation in HPTC1 (Example 3); type: cell-based, human; conditions: for nuclear translocation of NF-κB (positive control sample): FIG. 9
Text: (§1) No. 58488852 (HPTC 1) and Lot. No. 61247356 (HPTC10), were bought from the American Type Culture Collection (ATCC, Manassas, Va., USA). HPTC6 were isolated from a nephrectomy sample obtained from the National University Health System (NUHS, Singapore). Only normal tissue without pathological changes was used, which was selected by a pathologist. […] No. PCS-400-030) supplemented with Renal Epithelial Cell Growth Kit (ATCC, Cat. No. PCS-400-040) and 1% Penicillin Streptomycin (Gibco, Cat. No. 15140-122). […] HK-2 and LLC-PK1cells were purchased from ATCC. These two cell lines were maintained in Dulbecco's Modified Eagle Medium (DMEM) supplemented with 10% fetal bovine serum (FBS) and 1% Penicillin Streptomycin. Approval for the work with human kidney samples (DSRB-E/11/143) and cell types (NUS-IRB Ref. Code: 09-[…]) had been obtained. All cells were incubated in a humidified atmosphere at 37° C. and 5% CO2. Cells were seeded into 384-well black plates with transparent bottom (Greiner, Cat. No. 781091). HPTC1 and HPTC6 were seeded at 50,000 cells/cm^2; HPTC10 were seeded at 100,000 cells/cm^2; HK-2 cells were seeded at 20,000 cells/cm^2 and LLC-PK1 cells were seeded at 10,000 cells/cm^2 to adjust for the different growth kinetics of the different cell types and batches used. All cells were cultivated for 3 days to achieve the formation of a differentiated simple epithelium before drug treatment overnight (16 hours). The concentrations of the 43 drugs screened were 1000, 500, 250, 125, 63, 16 and 1.6 μg/mL. Puromycin at 100 μg/mL and TNF-α at 100 ng/mL were used as positive controls. […] The images were automatically analysed by using MetaXpressTM image analysis software version 2.0 using the Translocation-Enhanced Module. […] The intensity ratios of the outer nuclear area versus the inner nuclear area were automatically quantified by the MetaXpressTM image analysis software (version 2.0). The final quantitative results for each data point were the average results from 36 images (4 replicates (wells) with 9 multi-channel images per well). […]

HPTC1 = assay: Cell death in HPTC1 by HCS, based on counts of cell nuclei (Example 3); parameters: species or system human; conditions: HPTC1, 16 hours, 1.6-1000 μg/mL
Text: as §1, with “CO2.” for “CO2. Cells were seeded into 384-well black plates with transparent bottom (Greiner, Cat. No. 781091). HPTC1 and HPTC6 were seeded at 50,000 cells/cm^2; HPTC10 were seeded at 100,000 cells/cm^2; HK-2 cells were seeded at 20,000 cells/cm^2 and LLC-PK1 cells were seeded at 10,000 cells/cm^2 to adjust for the different growth kinetics of the different cell types and batches used. All cells were cultivated for 3 days to achieve the formation of a differentiated simple epithelium before drug treatment overnight (16 hours). The concentrations of the 43 drugs screened were 1000, 500, 250, 125, 63, 16 and 1.6 μg/mL. Puromycin at 100 μg/mL and TNF-α at 100 ng/mL were used as positive controls.”

NF-κB p65 [2] = assay: HCS assay of compound-induced NF-κB p65 nuclear translocation in HPTC (Example 2); type: cell-based, human
[3] = HPTC, 16 hours, 1.6-1000 μg/mL, 96-well plates, HCS images

Compound	Qualitative analysis of NF-κB translocation (visual inspection) (NF-κB p65 [2]; [3])	also measured
C=CC[C@@H]1/C=C(\C)C[C@H](C)C[C@H](OC)[C@H]2O[C@@](O)(C(=O)C(=O)N3CCCC[C@H]3C(=O)O[C@H](/C(C)=C/[C@@H]3CC[C@@H](O)[C@H](OC)C3)[C@H](C)[C@@H](O)CC1=O)[C@H](C)C[C@@H]2OC [Tacrolimus]	–	EC50 (compound concentration where nuclear translocation of NF-κB occurred in 50% of cells) (NF-κB p65 [1]; HPTC1, 16 hours, 1.6-1000 μg/mL): relatively low; IC50 (compound concentration where cell death occurred in 50% of cells; counts of cell nuclei) (HPTC1): relatively low
O=[As]O[As]=O (stereo not shown) [arsenic (III) oxide]	positive	–
[Cl][Au] [gold (I) chloride]	positive	–
CC(=O)[O-].CC(=O)[O-].[Pb+2] [lead acetate]	positive	–
C[n+]1ccc(-c2cc[n+](C)cc2)cc1 [paraquat]	–	Qualitative analysis of NF-κB translocation (visual inspection) (NF-κB p65 [2]): positive
[K+].[K+].[O]=[Cr](=[O])([O-])[O][Cr](=[O])(=[O])[O-] [potassium dichromate]	positive	–
COc1ccc(C[C@H](N)C(=O)N[C@H]2[C@@H](O)[C@H](n3cnc4c(N(C)C)ncnc43)O[C@@H]2CO)cc1 [puromycin]	–	nuclear translocation of NF-κB (positive control sample) (NF-κB p65 [1]; HPTC1, 16 hours): displayed nuclear translocation of NF-κB
TNF-α	–	nuclear translocation of NF-κB (positive control sample) (NF-κB p65 [1]; HPTC1, 100 ng/mL, 16 hours): displayed nuclear translocation of NF-κB
bismuth (III) oxide	positive	–
